Read-outs that look alike come from different tables or passages of the source.
Experiments:
[1] = target: T1, human IKK-β (Homo sapiens, UniProt O14920); experiment: IKK-β kinase inhibitory assay; assay type: biochemical; conditions: compounds of about 40 to 90% purity, read-out: In vitro activity grade (invitro, IC50)
T1 construct: A cDNA fragment encoding human IKK-β open reading frame was generated by PCR; His; made in house; host or cells: Sf21 insect cells (baculovirus); the GST-IκBα substrate was made in E. coli
T1 sequence (O14920 1-756): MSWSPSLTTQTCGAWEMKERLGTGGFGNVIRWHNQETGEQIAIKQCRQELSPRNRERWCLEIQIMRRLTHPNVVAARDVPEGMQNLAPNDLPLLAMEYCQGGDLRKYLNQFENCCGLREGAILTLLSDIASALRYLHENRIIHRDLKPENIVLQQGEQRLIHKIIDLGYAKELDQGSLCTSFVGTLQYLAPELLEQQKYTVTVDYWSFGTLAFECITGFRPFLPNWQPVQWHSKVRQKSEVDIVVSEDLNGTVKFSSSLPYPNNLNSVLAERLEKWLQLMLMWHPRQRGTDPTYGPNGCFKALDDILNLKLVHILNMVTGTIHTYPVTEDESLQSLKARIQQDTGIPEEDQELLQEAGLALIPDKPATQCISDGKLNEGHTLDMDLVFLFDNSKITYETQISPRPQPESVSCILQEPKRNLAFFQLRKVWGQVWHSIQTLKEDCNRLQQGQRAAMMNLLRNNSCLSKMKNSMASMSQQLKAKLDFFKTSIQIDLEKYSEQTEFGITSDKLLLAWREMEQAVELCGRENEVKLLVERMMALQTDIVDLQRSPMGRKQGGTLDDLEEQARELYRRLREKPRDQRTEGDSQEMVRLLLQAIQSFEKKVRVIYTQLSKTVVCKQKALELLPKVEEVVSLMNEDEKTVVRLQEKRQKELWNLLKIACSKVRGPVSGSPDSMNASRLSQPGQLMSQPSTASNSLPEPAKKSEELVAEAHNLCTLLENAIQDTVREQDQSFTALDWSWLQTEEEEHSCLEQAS
Source text: IKK-β Kinase Inhibitory Assay.
• (1) Preparation of IKK-β Kinase Protein. • A cDNA fragment encoding human IKK-β open reading frame was generated by PCR with the use of a pair of primers designed from the published sequence (Woronicz J D et al. (1997) Science 278,866-869). A template was obtained from Quickclone cDNA (Clontech) using Elongase™ Amplification kit (Life Technologies). The DNA fragments generated by PCR were gel-purified and subcloned into pBluescript. The cDNA fragment cloned in pBluescript was inserted into pcDNA3.1/His C KpnI/NotI, and transferred into pVL1393 SmaI/XbaI (Pharmingen) to construct a baculovirus transfer vector. Then the vector, together with the linearized baculovirus (BaculoGold™, Pharmingen) was used to transfect Sf21 cells (Invitrogen, San Diego, Calif.). Generated recombinant baculovirus was cloned and amplified in Sf21 cells, grown in TNM-FH insect cell medium (Life Technologies, Inc.) supplemented with 10% FCS, […] Gentamycin, 0.1% Pluronic F-68 (Life Technologies, Inc.) as suspension culture (200 ml in 1 L Erlenmeyer flask; 27° C.; 130 rpm). Sf21 cells were infected with this amplified virus with a multiplicity of infection of 5 following standard protocols (Crossen R, Gruenwald S (1997) Baculovirus Expression Vector System Instruction Manual, Pharmingen Corporation) and harvested 48 hrs. later. The cells were lysed to obtain the produced chimeric protein of IKK-β kinase fused by histidine (His-tagged IKK-beta). • (2) The Preparation of Purified GST-IκBα Fusion Proteins • An expression vector containing the nucleotide sequence encoding fusion protein of GST with amino acid residues 1 to 54 of IκBα under the control of an IPTG-inducible promoter was constructed. The expression vector was introduced in E. coli and the transformant was cultured and lysed to obtain a GST-IκBα fusion protein. Then the resulting GST-IκBα fusion protein was purified and biotinated for kinase assay. • (3) The Measurement of IKK-β Kinase Activity • The 96-well format kinase assay of IKK-β was performed to test the inhibitory activity of the compounds of the present invention. First, 5 μl of a test compound was put in the presence of 2.5% dimethyl sulfoxide (DMSO) in each well in a U-bottomed 96-well plate (Falcon). For control wells of background (BG) and total phosphorylation (TP), 5 μl of 2.5% DMSO was put. Recombinant IKK-β (final 0.6 μg/ml) and bio-GST-IκBα (1-54) (final 0.2 μM) were diluted in 25 μl of 2×kinase buffer β (40 mM Tris-HCl, pH 7.6, 40 mM MgCl2, 40 mM β-glycerophosphate, 40 mM p-nitrophenyl-phosphate, 2 mM EDTA, 40 mM creatine phosphate, 2 mM DTT, 2 mM Na3VO4, 0.2 mg/ml BSA and 0.8 mM phenylmethylsulfonyl fluoride) and transferred to the 96-well plate. Bio-GST-IκBα (1-54) in 25 μl of 2×kinase buffer β without IKK-β was transferred to BG wells. Then 20 μl of 12.5 μM ATP, 62.5 μCi/ml [γ-^33P] ATP (Amersham Pharmacia Biotech) was added and the resulting mixture was incubated for 2 hrs. at room temperature. The kinase reactions were terminated by the addition of 150 μl of termination buffer (100 mM EDTA, 1 mg/ml BSA, 0.2 mg NaN3). One handred and fifty μl of the sample was transferred to a streptavidin-coated, white MTP (Steffens Biotechniche Analysen GmbH #08114E14. FWD) to capture the biotinylated substrates. After 1 hr. of incubation, non-bound radioactivity was eliminated by washing the wells five times with 300 μl of washing buffer including 0.9% NaCl and 0.1% (w/v) Tween-20 with the use of a MW-96 plate washer (BioTec). The bound radioactivity was determined after the addition of 170 μl MicroScint-PS scintillation cocktail (Packard) using a TopCount scintillation counter. Syk Tyrosine Kinase Inhibitory Assay for Selectivity. • (1) Preparation of Syk Protein • A cDNA fragment encoding human Syk openreading frame was cloned from total RNA of human Burkitt's lymphoma B cell lines, Raji (American Type Culture Collection), with the use of RT-PCR method. […]

[2] = tested on: RANTES production in response to TNF-α from A549 cells; experiment: RANTES production in response to TNF-α from A549 cells; assay type: cell-based, human; conditions: 100 ng/ml TNF-α, compounds of about 40 to 90% purity, read-out: Cellular activity grade (A549, IC50)

| SMILES | IC50 [1] [nM] | IC50 ([2]; Homo sapiens, A549, 24 h) [nM] | IC50 ([2]; 24 hrs) [nM] |
| --- | --- | --- | --- |
| N#Cc1c(-c2ccc(N3CCCC3)c(NC(=O)CCN)c2)cc(-c2ccccc2O)nc1N [Example 3-04] | < 500 | 1000 to 10000 |  |
| N#Cc1c(-c2cccc(N)c2)cc(-c2ccccc2O)nc1N [Example 1-07] | 2000 to 10000 | > 10000 |  |
| CN(C)c1ccc(-c2cc(-c3ccccc3O)nc(N)c2C#N)cc1NC(=O)CCN1CCCCC1 [Example 3-08] | < 500 | 1000 to 10000 |  |
| COCC(=O)Nc1cccc(-c2cc(-c3ccccc3O)nc(N)c2C#N)c1 [Example 1-04] | 500 to 2000 | > 10000 |  |
| N#Cc1c(-c2cccc(NC(=O)CNC3CCCC3)c2)cc(-c2ccccc2O)nc1N [Example 4-17] | 500 to 2000 | 1000 to 10000 |  |
| CCOC(=O)C1CCCN(CCC(=O)Nc2cccc(-c3cc(-c4ccccc4O)nc(N)c3C#N)c2)C1 (stereo not drawn) [Example 4-27] | 2000 to 10000 | 1000 to 10000 |  |
| N#Cc1c(-c2cccc(NC(=O)C3CCC(=O)O3)c2)cc(-c2ccccc2O)nc1N (stereo not drawn) [Example 1-1, N-{3-[2-amino-3-cyano-6-(2-hydroxyphenyl)-4-pyridinyl]phenyl}-5-oxotetrahydro-2-furancarboxamide] | 500 to 2000 |  | 1000 to 10000 |
| Cc1ccc(O)c(-c2cc(-c3cccc(NC(=O)C4CCC(=O)O4)c3)c(C#N)c(N)n2)c1 (stereo not drawn) [Example 1-11] | > 10000 | > 10000 |  |
| N#Cc1c(-c2cccc(NC(=O)CN3CCCC3)c2)cc(-c2ccccc2O)nc1N [Example 4-23] | 500 to 2000 | 1000 to 10000 |  |
| CCN(CC)c1ccc(-c2cc(-c3ccccc3O)nc(N)c2C#N)cc1NC(=O)CCN1CCCCC1 [Example 3-13] | 2000 to 10000 | 1000 to 10000 |  |
| COCCNCC(=O)Nc1cc(-c2cc(-c3ccccc3O)nc(N)c2C#N)ccc1Cl [Example 4-25] | < 500 | > 10000 |  |
| CC(C)C[C@H](N)C(=O)Nc1cc(-c2cc(-c3ccccc3O)nc(N)c2C#N)ccc1N1CCC(NC(=O)C(F)(F)F)C1 (stereo partly drawn) [Example 3-16] | < 500 | 1000 to 10000 |  |
| CN(C)[C@H]1CCN(c2ccc(-c3cc(-c4ccccc4O)nc(N)c3C#N)cc2NC(=O)CNCC2CC2)C1 [Example 3-14] | < 500 | 1000 to 10000 |  |
| CCCNCC(=O)Nc1cccc(-c2cc(-c3ccccc3O)nc(N)c2C#N)c1 [Example 4-19] | 500 to 2000 | 1000 to 10000 |  |
| CN(C)CC(=O)Nc1cccc(-c2cc(-c3ccccc3O)nc(N)c2C#N)c1 [Example 4-22] | 500 to 2000 | 1000 to 10000 |  |
| N#Cc1c(-c2ccc(Cl)c(N)c2)cc(-c2ccccc2O)nc1N [Example 2-19] | > 10000 | 1000 to 10000 |  |
| COCCNCC(=O)Nc1cccc(-c2cc(-c3ccccc3O)nc(N)c2C#N)c1 [Example 4-24] | 500 to 2000 | > 10000 |  |
| CCN1CCN(CCC(=O)Nc2cccc(-c3cc(-c4ccccc4O)nc(N)c3C#N)c2)CC1 [Example 4-12] | 500 to 2000 | 1000 to 10000 |  |

| SMILES | IC50 [1] [nM] | IC50 ([2]; Homo sapiens, A549, 24 h) [nM] | IC50 ([2]; 24 hrs) [nM] |
| --- | --- | --- | --- |
| CN1CCN(CCC(=O)Nc2cccc(-c3cc(-c4ccccc4O)nc(N)c3C#N)c2)CC1 [Example 4-10] | 500 to 2000 | 1000 to 10000 |  |
| N#Cc1c(-c2cccc(N)c2)cc(-c2ccccc2O)nc1N [Example 1-08] | > 10000 |  | > 10000 |
| N#Cc1c(-c2cccc(NC(=O)CNCC3CC3)c2)cc(-c2ccccc2O)nc1N [Example 4-18] | < 500 | 1000 to 10000 |  |
| N#Cc1c(-c2cccc(NC(=O)CNCCCO)c2)cc(-c2ccccc2O)nc1N [Example 4-20] | < 500 | > 10000 |  |
| CC(C)C[C@H](N)C(=O)Nc1cc(-c2cc(-c3ccccc3O)nc(N)c2C#N)ccc1N1CCC[C@H]1CO [Example 3-11] | 500 to 2000 | 1000 to 10000 |  |
| N#Cc1c(-c2cccc(NC(=O)C(O)CCC(=O)O)c2)cc(-c2cc(F)ccc2O)nc1N (stereo not drawn) [Example 1-16] | 500 to 2000 | > 10000 |  |
| N#Cc1c(-c2cccc(NC(=O)CCN3CCN(Cc4ccccc4)CC3)c2)cc(-c2ccccc2O)nc1N [Example 4-11] | 2000 to 10000 | 1000 to 10000 |  |
| N#Cc1c(-c2cccc(NC(=O)CN3CC=CC3)c2)cc(-c2ccccc2O)nc1N [Example 4-14] | 500 to 2000 | 1000 to 10000 |  |
| CC(=O)Nc1ccc(-c2cc(-c3ccccc3O)nc(N)c2C#N)cc1O [Example 2-16] | < 500 | 1000 to 10000 |  |
| N#Cc1c(-c2ccc(C(=O)O)cc2)cc(-c2ccccc2O)nc1N [Example 5-02] | 500 to 2000 | > 10000 |  |
| N#Cc1c(-c2ccc(Cl)c(NC(=O)CCN)c2)cc(-c2ccccc2O)nc1N [Example 2-13] | < 500 | 1000 to 10000 |  |
| CC(C)C[C@H](N)C(=O)Nc1cc(-c2cc(-c3ccccc3O)nc(N)c2C#N)ccc1N(C)Cc1ccccc1 [Example 3-15] | 2000 to 10000 | 1000 to 10000 |  |
| CN(C)c1ccc(-c2cc(-c3ccccc3O)nc(N)c2C#N)cc1NC(=O)CCN1CCCCC1 [Example 4-36] | 500 to 2000 |  | 1000 to 10000 |
| CC(=O)Nc1cccc(-c2cc(-c3ccccc3O)nc(N)c2C#N)c1 [Example 1-14] | > 10000 | > 10000 |  |
| CCN1CCC(N(CC)CCC(=O)Nc2cccc(-c3cc(-c4ccccc4O)nc(N)c3C#N)c2)C1 (stereo not drawn) [Example 4-16] | 500 to 2000 | 1000 to 10000 |  |
| CC(=O)Nc1ccc(-c2cc(-c3ccccc3O)nc(N)c2CO)cc1O [Example 8-05] | < 500 |  | 1000 to 10000 |
| CN1CCN(CC(=O)Nc2cccc(-c3cc(-c4ccccc4O)nc(N)c3C#N)c2)CC1 [Example 4-02] | 500 to 2000 | 1000 to 10000 |  |
| N#Cc1c(-c2cccc(NC(=O)CCN3CCCCC3)c2)cc(-c2ncccc2O)nc1N [Example 2-17] | 500 to 2000 | > 10000 |  |
